{"source": "patent US20140142180A1", "about": "“METHODS OF TREATING TUMORS HAVING ELEVATED MCT1 EXPRESSION” (Whitehead Institute for Biomedical Research, priority 2012, published 2014)", "key": {"[1]": {"molecular_target": "GAPDH (Homo sapiens, UniProt P04406)", "sequence (P04406 whole entry, species assumed)": "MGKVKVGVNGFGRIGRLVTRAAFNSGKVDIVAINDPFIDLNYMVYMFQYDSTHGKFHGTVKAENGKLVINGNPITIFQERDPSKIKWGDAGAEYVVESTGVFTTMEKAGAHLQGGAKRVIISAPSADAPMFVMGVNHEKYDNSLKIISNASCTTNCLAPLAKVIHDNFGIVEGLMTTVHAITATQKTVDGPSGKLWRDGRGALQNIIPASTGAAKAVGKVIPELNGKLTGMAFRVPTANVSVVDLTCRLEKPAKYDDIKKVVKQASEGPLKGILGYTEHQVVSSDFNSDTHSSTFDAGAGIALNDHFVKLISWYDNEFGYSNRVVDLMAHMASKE", "details": "covalent bond with active-site cysteine; cited from earlier work"}, "[2]": {"molecular_target": "T1, MCT1 (Homo sapiens, UniProt P53985)", "T1 construct": "endogenous in cells; host or cells: wild type KBM7 cells (near-haploid human cell line)", "T1 sequence (P53985 1-500)": "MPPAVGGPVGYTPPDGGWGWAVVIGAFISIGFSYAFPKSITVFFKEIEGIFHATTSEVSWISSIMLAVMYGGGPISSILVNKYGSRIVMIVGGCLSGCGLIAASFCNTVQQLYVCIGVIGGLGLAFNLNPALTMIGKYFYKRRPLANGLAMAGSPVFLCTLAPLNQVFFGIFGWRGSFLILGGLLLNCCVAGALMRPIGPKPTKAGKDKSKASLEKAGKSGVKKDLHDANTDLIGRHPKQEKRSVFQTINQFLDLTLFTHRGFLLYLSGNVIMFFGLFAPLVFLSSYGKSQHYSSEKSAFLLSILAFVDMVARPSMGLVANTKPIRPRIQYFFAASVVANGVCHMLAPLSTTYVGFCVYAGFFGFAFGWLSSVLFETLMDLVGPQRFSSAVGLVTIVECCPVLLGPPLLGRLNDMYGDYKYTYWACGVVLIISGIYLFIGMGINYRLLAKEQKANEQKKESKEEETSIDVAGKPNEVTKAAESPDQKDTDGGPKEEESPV", "T1 sequence (P35613 140-385 partner limits assumed)": "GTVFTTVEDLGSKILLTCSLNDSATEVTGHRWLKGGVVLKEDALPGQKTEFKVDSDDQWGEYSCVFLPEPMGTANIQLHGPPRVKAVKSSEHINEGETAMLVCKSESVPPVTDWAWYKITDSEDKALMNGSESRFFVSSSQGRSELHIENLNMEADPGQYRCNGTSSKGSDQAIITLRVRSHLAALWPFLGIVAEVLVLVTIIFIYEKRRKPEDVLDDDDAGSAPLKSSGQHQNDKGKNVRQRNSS", "test": "14C-3-BrPA uptake assay, wild type KBM7 cells", "type": "cell-based", "details": "wild type KBM7 in HBSS, up to 20 minutes, unlabeled competitor", "method": "Wild type KBM7 or MCT1-null cells were seeded in HBSS and exposed for up to 20 minutes to 100 μM ^14C-labeled 3-BrPA (6.8 mCi/mmole) (Moravek) with or without competitor molecules like 3-BrPA, Pyruvate, L-Lactate and D-Lactate. Cells were washed with cold HBSS, lysed in a NaOH buffer, and uptake measured using a liquid scintillation counter."}, "[3]": {"test_system": "MCT1", "details": "cited from earlier work"}}}
{"smiles": "CC1=C[C@@]23C(COC(=O)C24CO4)C(C(=O)O)=CC3[C@@H]1C", "note": "(some centres unmarked) [Pentalenolactone]", "values": [{"measurement": "inhibition of GAPDH", "setting": "[1]", "value": "potently inhibit"}]}
{"smiles": "CC(C)C1CC[C@@]2(CO2)[C@H]2C(=O)OCC(C(=O)O)=C[C@H]12", "note": "(some centres unmarked) [koningic acid]", "values": [{"measurement": "inhibition of GAPDH", "setting": "[1]", "value": "potently inhibit"}]}
{"smiles": "CC(O)C(=O)O", "note": "(centres unmarked) [lactate]", "values": [{"measurement": "competition with the uptake of radiolabeled 3-BrPA", "setting": "[2]", "value": "to a lesser extent"}]}
{"smiles": "N#C/C(=C\\c1ccc(O)cc1)C(=O)O", "note": "[α-cyano-4-hydroxycinnamate (CHC), α-cyano-4-hydroxycinnamate]", "values": [{"measurement": "antitumor effect", "setting": "[3]; alone or in combination with radiotherapy in mice", "value": "potent antitumor affects"}, {"measurement": "toxicity", "setting": "[3]; mice", "value": "without exerting overt toxicity"}]}
